Legend:
[1] = Stability of an E-type prostaglandin in propylene glycol dicaprylate/dicaprate (Captex 200) on storage; format: physicochemical; conditions: for % Remaining of Initial Drug Concentration: 0.25 mg/ml in Captex 200, sealed glass ampules
Procedure: A solution of 0.25 mg (dl)-9-keto-11α,15α-dihydroxy-16-phenoxy-17,18,19,20-tetranorprosta-4,5,13-trans-trienoic acid methyl ester per ml in propylene glycol dicaprylate/dicaprate (Captex 200) was made by dissolving said compound in the solvent with the aid of a magnetic stirrer. Aliquots of this solution were filled into glass ampules and sealed. The ampules were then stored at various temperatures for various durations.

[2] = Stability in peanut oil, USP on storage (comparison); format: physicochemical; conditions: 2 weeks storage at 60° C., 50 mcg per ml peanut oil, 20160 min

## COC(=O)CCC=C=CCC1C(=O)CC(O)C1C=CC(O)COc1ccccc1 (stereo not drawn) [(dl)-9-keto-11α,15α-dihydroxy-16-phenoxy-17,18,19,20-tetranorprosta-4,5,13-trans-trienoic acid methyl ester]
[1]; 0 month, 45° C.
  % Remaining of Initial Drug Concentration: 100%
[1]; 0 month, 60° C.
  % Remaining of Initial Drug Concentration: 100%
[1]; 1 month, 60° C., 43800 min
  % Remaining of Initial Drug Concentration: 97.6%
[1]; 3 months, 45° C., 131400 min
  % Remaining of Initial Drug Concentration: 100.7%
[1]; 3 months, 60° C., 131400 min
  % Remaining of Initial Drug Concentration: 90.0%
[1]; storage at 45° C. and 60° C., 0.25 mg/ml in Captex 200
  stability in Captex 200 (in words): quite stable
[2]
  drug remaining: 77.8%
